According to patent US11304963B2, “Methods of medical treatment with SUR1-TRPM4 channel inhibitors” (BIOGEN CHESAPEAKE LLC, priority 2016, dated 2022):

What was measured:
[1] = Plasma pharmacokinetics of glyburide, bolus injection followed by 72 hours continuous infusion, healthy adult subjects; settings: for Metabolite exposure versus administered dose of RP-1127: 0.4 mg/day vs 3.0 mg/day; for Metabolite level as share of the glyburide steady-state concentration: on average; for Average plasma metabolite concentration: through 72.5 hours after the initial bolus injection
Description: The two groups are referred to as the 0.4 mg/day group and the 3.0 mg/day group, respectively.

[2] = system: cerebral edema-related side effects; assay: Clinical trial of glyburide in patients undergoing CAR-T therapy, surgical excision of a brain tumor, and/or diagnosed with cerebral edema; assay type: in vivo, human; settings: 0.5-3.0 mg/day
Description: (§1) In one arm, glyburide is administered as a bolus followed by continuous infusion.
(§2) In a second arm, glyburide is administered via a transdermal patch or gel.
(§3) In a third arm, glyburide is administered via injection, e.g., intravenous infusion.
(§4) In a fourth arm, glyburide is administered orally.
The study duration is days up to weeks.
Plasma levels of glyburide are determined daily.
The control group is matched for age, gender, and pre-operative stage.
(§5) Each patient is monitored via blood sampling and MRI. A diagnostic contrast-enhanced MRI of the brain is performed prior to inclusion in the study.
(§6) The following comparisons are made:
(§7) Occurrence of one or more cerebral edema-related side effects: • Headache • Neck pain or stiffness • Nausea or vomiting • Dizziness • Irregular breathing • Vision loss or changes • Memory loss • Inability to walk • Difficulty speaking • Stupor • Seizures • Loss of consciousness

migraine = assay: Clinical trial of glyburide for the prevention of migraine; assay type: in vivo, human; settings: patients with a history of migraine; after 12 weeks of treatment; 0.5-3.0 mg/day
Description: This is a randomized, double-blind, placebo-controlled, parallel Group, dose-ranging study to investigate the efficacy, safety and tolerability of glyburide for the prevention of migraine.
as §1, §2, §3, §4
The study duration is several days up to one week.
Number of migraine headache days during weeks 9-12 of the treatment period.
Change in Scores From Completeness of Response Survey (CORS) (Time Frame: Visit 1 (screening) and Visit 2 (study completion following 2-month treatment period)).
CORS scores for Pain (0-4), Associated Symptoms (0-4), Limbic/Affective Symptoms (0-5), and Speed of Return to Functionality (1-5), represent outcome measures that are relevant to patients. Higher scores represent better treatment efficacy.
The analysis compares CORS scores for usual treatment (pre-study) versus glyburide (study medication).

[3] = system: cerebral edema-related side effects; assay: Clinical trial of glyburide in patients with brain tumors or metastasis undergoing radiation therapy; assay type: in vivo, human; settings: 0.5-3.0 mg/day
Description: as §1, §2, §3, §4
The study duration is weeks to months.
Plasma levels of glyburide are determined weekly.
The control group is matched for age, gender, and pre-radiation therapy stage.
as §5, §6, §7

subjects with LHI = assay: Mortality study in 77 subjects with LHI given Cirara and/or tPA; assay type: in vivo, human; settings: Group 1: tPA and a placebo; 22 subjects with LHI; tPA within 4.5 hours of stroke onset
Description: As used herein, the term “placebo” refers to an ostensibly pharmaceutical formulation with no pharmaceutically active agent, or lacks the particular pharmaceutical agent of interest in a given study. In the examples disclosed herein, the placebo is lacking the SUR1-TRPM4 channel inhibitor. As used herein, the term “Cirara” refers to a commercially available intravenous formulation of glyburide. In this example, tPA was administered in accordance with current clinical guidelines for managing ischemic stroke within 4.5 hours of stroke onset (Jauch et al. 2013).
The adverse outcome examined in the study was death. This was for exemplary purposes only and is not intended to be limiting.

For `COc1ccc(Cl)cc1C(=O)NCCc1ccc(S(=O)(=O)NC(=O)NC2CCC(O)CC2)cc1` (centres unmarked) [M1], the “Time plasma metabolite levels first detected after the initial bolus RP-1127 IV injection” value ([1]; 0.4 mg/day dose group) was 1 h, the “Metabolite exposure versus administered dose of RP-1127” value [1] was “approximately proportional to the administered dose” and the “Time plasma metabolite levels first detected after the initial bolus RP-1127 IV injection” value ([1]; 3.0 mg/day dose group) was 0.167 h. For the same molecule, the “Metabolite level as share of the glyburide steady-state concentration” value [1] was 18%.
With `COc1ccc(Cl)cc1C(=O)NCCc1ccc(S(=O)(=O)NC(=O)NC2CCCCC2)cc1` [Glyburide, glyburide] the “Cerebral edema-related side effects compared with the control group” value [2] was “significantly reduced or inhibited”, the “Migraine outcome measures compared with the placebo group” value (migraine) was “significantly improved” and the “Cerebral edema-related side effects compared with the control group” value [3] was “significantly reduced or inhibited”.
In the case of `COc1ccc(Cl)cc1C(=O)NCCc1ccc(S(=O)(=O)NC(=O)NC2CCCC(O)C2)cc1` (centres unmarked) [M2], the “Time plasma metabolite levels first detected after the initial bolus RP-1127 IV injection” value ([1]; 0.4 mg/day dose group) was 2 h, the “Average plasma metabolite concentration” value ([1]; 0.4 mg/day dose group) was no more than 0.19 ng/mL and the “Metabolite exposure versus administered dose of RP-1127” value [1] was “approximately proportional to the administered dose”. The “Time plasma metabolite levels first detected after the initial bolus RP-1127 IV injection” value ([1]; 3.0 mg/day dose group) was 0.333 h, the “Average plasma metabolite concentration” value ([1]; 3.0 mg/day dose group) was no more than 1.4 ng/mL and the “Metabolite level as share of the glyburide steady-state concentration” value [1] was 6%.
For “tPA: Tissue plasminogen activator, a class of strong blood clot dissolving medicines”, the “Mortality Rate” value (subjects with LHI) was 41%.
